≈ marks a conversion by molar mass, not a printed value. Where “and” joins values, the source holds several entries; their conditions need not be identical. Identical values can stand only once.

Test systems include Aspergillus flavus; Bacillus megaterium; Saccharomyces cerevisiae; Serratia rubidaea X01; Escherichia coli 117; Escherichia coli 218; Escherichia coli 37; Escherichia coli K-12; Klebsiella pneumoniae; Pseudomonas aeruginosa; Shigella dysenteriae; Staphylococcus aureus 37.
Holding throughout (experiment): ≥ marks a high value that may be exact or a test limit, other limits are often not marked, values filed in µg/mL are converted to µM
Assay [1] has as its system Candida albicans ATCC 90028.
For assay [2], the system named is Candida parapsilosis ATCC 22019.
Assay [3] deals with Enterococcus faecalis ATCC 29212.
The subject of assay [4] is Escherichia coli ATCC 25922.
The test system of assay [5] is Escherichia coli ATCC 35218.
The subject of assay [6] is Pseudomonas aeruginosa ATCC 27853.
The subject of assay [7] is Staphylococcus aureus ATCC 25923.
Assay [8] has as its system Bacillus licheniformis X39.
Assay [9] has as its system Enterococcus faecalis 981.
Assay [10] deals with Psychrobacter faecalis X29.
Assay [11] has as its system Rhodococcus rhodochrous X15.
The subject of assay [12] is Staphylococcus carnosus KHS.
Assay [13] deals with Acinetobacter baumannii I NM8.
Assay [14] has as its system Escherichia coli ATCC 25726.
The subject of assay [15] is Klebsiella pneumoniae ATCC 700603.
Assay [16] has as its system Candida albicans ATCC 2002.
The test system of assay [17] is Enterobacter cloacae ATCC 13047.
Assay [18] has as its system Pseudomonas aeruginosa CMCCB 1010.
The test system of assay [19] is Staphylococcus aureus USA 300.
Assay [20] deals with Helicobacter pylori NCTC 11637.
The test system of assay [21] is Staphylococcus aureus ATCC 2592.

Consider `CC[C@H](C)[C@H](NC(=O)[C@H](Cc1cnc[nH]1)NC(=O)[C@H](CO)NC(=O)[C@H](CC(C)C)NC(=O)[C@@H](N)Cc1ccccc1)C(=O)N[C@@H](C)C(=O)NCC(=O)N[C@@H](Cc1ccccc1)C(=O)N[C@@H](CC(C)C)C(=O)N[C@@H](CO)C(=O)N[C@@H](CC(N)=O)C(=O)N[C@@H](CC(C)C)C(=O)N[C@@H](Cc1ccccc1)C(=O)O` [FLSHIAGFLSNLF], for which the MIC in the assay on Aspergillus flavus was 10 µM (≈ 14.7 µg/mL); in the assay on Bacillus megaterium, 4 µM (≈ 5.86 µg/mL); in assay [1] it was 20 µM (≈ 29.3 µg/mL); in [2] it was 20 µM (≈ 29.3 µg/mL); in [3], over 80 µM; in [4], 161 µM (≈ 236 µg/mL). Also, the MIC in assay [5] is at least 80 µM; in [6], over 161 µM; in the assay on Saccharomyces cerevisiae it was 10 µM (≈ 14.7 µg/mL); in assay [7], 10 µM (≈ 14.7 µg/mL).

Take `CC[C@H](C)[C@H](NC(=O)CNC(=O)[C@H](Cc1ccccc1)NC(=O)[C@H](CCC(=O)O)NC(=O)[C@H](CCCCN)NC(=O)[C@H](CC(C)C)NC(=O)[C@H](CCCCN)NC(=O)[C@H](CC(=O)O)NC(=O)[C@H](CC(C)C)NC(=O)[C@@H](NC(=O)CN)[C@@H](C)CC)C(=O)N[C@@H](CO)C(=O)N[C@@H](C)C(=O)N[C@@H](C)C(=O)N[C@@H](CCCN=C(N)N)C(=O)NCC(=O)N[C@H](C(=O)N[C@@H](C)C(=O)N[C@@H](CCC(N)=O)C(=O)N[C@@H](CO)C(=O)N[C@@H](CC(C)C)C(=O)N[C@@H](CC(C)C)C(=O)N[C@@H](CC(N)=O)C(=O)N[C@H](C(=O)N[C@@H](C)C(=O)N[C@@H](CO)C(=O)N[C@H]1CSSC[C@@H](C(=O)O)NC(=O)[C@H]([C@@H](C)O)NC(=O)[C@H](CCCCN)NC(=O)[C@H](C)NC(=O)[C@H](CC(C)C)NC(=O)[C@H](CCCCN)NC1=O)[C@@H](C)O)C(C)C` [GILDKLKEFGISAARGVAQSLLNTASCKLAKTC]: the MIC is at least 75 µM in assay [8]; at least 37.5 µM in assay [9]; 150 µM (≈ 511 µg/mL) in assay [4]; 2.3 µM (≈ 7.83 µg/mL) in assay [10]; 2.3 µM (≈ 7.83 µg/mL) in assay [11]; 2.3 µM (≈ 7.83 µg/mL) in the assay with Serratia rubidaea X01. Besides, the minimum inhibitory concentration (MIC) is 37.5 µM (≈ 128 µg/mL) in assay [7] and at least 37.5 µM in [12].

With `CC[C@H](C)[C@H](NC(=O)[C@@H](NC(=O)[C@H](CO)NC(=O)[C@H](C)NC(=O)[C@H](CC(C)C)NC(=O)CN)[C@@H](C)O)C(=O)NCC(=O)N[C@@H](CO)C(=O)N[C@@H](CC(C)C)C(=O)N[C@@H](CC(C)C)C(=O)NCC(=O)N[C@@H](CCCCN)C(=O)N[C@@H](Cc1ccccc1)C(=O)N[C@@H](C)C(=O)N[C@@H](CCCCN)C(=O)NCC(=O)NCC(=O)N[C@@H](C)C(=O)N[C@@H](CCC(N)=O)C(=O)N[C@@H](C)C(=O)N[C@@H](Cc1ccccc1)C(=O)N[C@@H](CC(C)C)C(=O)N[C@@H](CCC(N)=O)C(=O)N1CCC[C@H]1C(=O)N[C@@H](CCCCN)C(=O)O` [GLASTIGSLLGKFAKGGAQAFLQPK], the MIC in assay [13] was 25 µM (≈ 61.5 µg/mL); in [1] it was at least 50 µM; in assay [14], at least 160 µM; in assay [15] it was over 50 µM; in assay [7], 80 µM and 100 µM.

Turning to `CC[C@H](C)[C@H](N)C(=O)N[C@@H](CC(N)=O)C(=O)N[C@@H](CC(C)C)C(=O)N[C@@H](CCCCN)C(=O)N[C@@H](C)C(=O)N[C@H](C(=O)N[C@@H](C)C(=O)N[C@@H](C)C(=O)N[C@@H](CC(C)C)C(=O)N[C@@H](C)C(=O)N[C@@H](CCCCN)C(=O)N[C@@H](CCCCN)C(=O)N[C@@H](CC(C)C)C(=O)N[C@@H](CC(C)C)C(=O)O)[C@@H](C)CC` [INLKAIAALAKKLL], the MIC in [16] was determined as 6.76 µM (≈ 10 µg/mL); in [1], 6.76 µM (≈ 10 µg/mL); in assay [2] it was 27 µM (≈ 40 µg/mL); in assay [17], 13.5 µM (≈ 20 µg/mL); in assay [3] it was 1.69 µM (≈ 2.5 µg/mL); against Escherichia coli 117 it was 27 µM (≈ 40 µg/mL). Besides, the MIC with Escherichia coli 218 was determined as 13.5 µM (≈ 20 µg/mL); against Escherichia coli 37, 6.76 µM (≈ 10 µg/mL); in [4] it was 13.5 µM (≈ 20 µg/mL); in the assay on Escherichia coli K-12, 25 µM (≈ 37 µg/mL); in assay [15], 6.76 µM (≈ 10 µg/mL); with Klebsiella pneumoniae, 6.76 µM (≈ 10 µg/mL). Moreover, the MIC in assay [6] was found to be 3.38 µM (≈ 5 µg/mL); in [18], 27 µM (≈ 40 µg/mL); in the assay on Pseudomonas aeruginosa, 3.38 µM (≈ 5 µg/mL); with Shigella dysenteriae it was 3.38 µM (≈ 5 µg/mL); with Staphylococcus aureus 37, 6.76 µM (≈ 10 µg/mL); in assay [7] it was 3.38 µM (≈ 5 µg/mL). The compound further yielded an MIC in assay [19] of at least 100 µM.

As for `CC[C@H](C)[C@H](NC(=O)[C@H](CCC(N)=O)NC(=O)[C@H](CCCCN)NC(=O)[C@H](Cc1c[nH]c2ccccc12)NC(=O)[C@H](CO)NC(=O)[C@H](CCC(N)=O)NC(=O)[C@@H]1CCCN1C(=O)[C@H](CC(C)C)NC(=O)[C@H](CCCCN)NC(=O)[C@H](C)NC(=O)[C@H](CCC(=O)O)NC(=O)[C@H](CCCCN)NC(=O)[C@@H](NC(=O)[C@H](CCSC)NC(=O)[C@@H](NC(=O)[C@@H](NC(=O)[C@@H](NC(=O)[C@@H](N)CO)[C@@H](C)CC)[C@@H](C)CC)[C@@H](C)O)[C@@H](C)O)C(=O)N[C@@H](C)C(=O)N[C@H]1CSSC[C@@H](C(=O)O)NC(=O)[C@H]([C@@H](C)O)NC(=O)[C@H](CC(N)=O)NC(=O)[C@H](Cc2ccc(O)cc2)NC(=O)[C@H](CC(C)C)NC(=O)[C@H](CCCN=C(N)N)NC1=O` [SIITMTKEAKLPQSWKQIACRLYNTC], the MIC in [16] was determined as 9.91 µM (≈ 30 µg/mL); in [4], 19.8 µM (≈ 60 µg/mL); in assay [20], 9.91 µM (≈ 30 µg/mL); with Shigella dysenteriae, 19.8 µM (≈ 60 µg/mL); in assay [21], 4.95 µM (≈ 15 µg/mL).

In general, MIC refers to the lowest concentration that inhibits growth of the organism. A high value points to a less susceptible organism.

These data come from DBAASP.
